Measured values as given in PMC3733713, “Downscaling the Analysis of Complex Transmembrane Signaling Cascades to Closed Attoliter Volumes” (PLoS ONE, 2013).

Biological target: T1, adenosine A2A receptor (A2AR-YFP) (Homo sapiens, UniProt P29274)
T1 construct: gene ADORA2A; Human adenosine 2A receptor fused C-terminally to EYFP
Test: fluorescence correlation spectroscopy titration on single native vesicles from HEK293T cells (KD =[…] on cells)
Format: binding

T1 sequence (P29274 whole entry, the tested form may be a part): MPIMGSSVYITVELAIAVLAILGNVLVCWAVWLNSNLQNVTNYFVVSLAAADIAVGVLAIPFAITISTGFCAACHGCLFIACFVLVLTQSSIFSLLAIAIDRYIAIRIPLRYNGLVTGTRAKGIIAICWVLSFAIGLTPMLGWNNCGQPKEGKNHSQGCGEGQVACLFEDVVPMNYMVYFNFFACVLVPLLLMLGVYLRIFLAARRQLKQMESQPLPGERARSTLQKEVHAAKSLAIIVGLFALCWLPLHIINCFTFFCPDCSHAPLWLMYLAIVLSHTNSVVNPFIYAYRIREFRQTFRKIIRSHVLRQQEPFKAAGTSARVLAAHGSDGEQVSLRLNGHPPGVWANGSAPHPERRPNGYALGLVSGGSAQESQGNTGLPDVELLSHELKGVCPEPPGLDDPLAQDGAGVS

Kd: 67 ± 11 nM
Substance: XAC-Atto655
